Test results reported in patent US6391827B1, “Pyrrolic compounds having a high herbicidal activity and their agronomic use” (Isagro Ricerca S.r.l., priority 1999, dated 2002).

Tests used:
Format in all cases: in vivo
Set-up in all cases: key: 0=0-20% of damage; 1=21-40%; 2=41-60%; 3=61-80%; 4=81-95%; 5=death of the plant treated
Details in all cases: 150 g/hectare, evaluated 21 days after treatment, damage vs blank
Convolvulus sepium (CS) = assay: Herbicidal activity in post-emergence, Convolvulus sepium
Description: (§1) The herbicidal activity of the compounds of the invention was evaluated with respect to both monocotyledon and dicotyledon weeds, in post- and pre-emergence treatment.
(§2) The evaluation tests were carried out according to the following operative procedures.
(§3) Vases (diameter over 10 cm, height 10 cm) containing sandy medium were prepared. One of the following weeds was planted in each of them: Abutilon theofrasti (AT), Amarantus retraflexus (AR), Chenopodium album (CA), Convolvulus sepium (CS), Portulaca oleracea (PO), Solanum nigrum (SN), Ipomea purpurea (IP).
(§4) Water was added to each vase in a suitable quantity for a good germination of the seeds. The vases were divided into two groups, each group containing at least 5 vases for each weed.
(§5) The first group was not treated with herbicide and was used as a comparison (blank).
(§6) The second group of vases was treated fifteen days after sowing (i.e. when the small weed plants, depending on the species, were 10-15 cm high) with a hydroacetone dispersion at 20% by volume of acetone of the product to be evaluated (herbicidal activity in post-emergence). All the vases were kept under observation in a conditioned environment under the following environmental conditions:
(§7) light intensity: 10000 lux
(§8) Every two days, the vases were uniformly watered to ensure a sufficient degree of humidity for a good development of the plants.
(§9) 21 days after treatment, the herbicidal activity was evaluated on the basis of the following scale of values referring to the percentage of damage measured on the treated plants with respect to those not treated (blank): […]

Solanum nigrum (SN) = assay: Herbicidal activity in post-emergence, Solanum nigrum
Description: as §1, §2, §3, §4, §5, §6, §7, §8, §9

Chenopodium album (CA) = assay: Herbicidal activity in post-emergence, Chenopodium album
Description: as §1, §2, §3, §4, §5, §6, §7, §8, §9

[1] = test system: Amarantus retraflexus (AR); assay: Herbicidal activity in post-emergence, Amarantus retraflexus
Description: as §1, §2, §3, §4, §5, §6, §7, §8, §9

Abutilon theofrasti (AT) = assay: Herbicidal activity in post-emergence, Abutilon theofrasti
Description: as §1, §2, §3, §4, §5, §6, §7, §8, §9

Portulaca oleracea (PO) = assay: Herbicidal activity in post-emergence, Portulaca oleracea
Description: as §1, §2, §3, §4, §5, §6, §7, §8, §9

Ipomea purpurea (IP) = assay: Herbicidal activity in post-emergence, Ipomea purpurea
Description: as §1, §2, §3, §4, §5, §6, §7, §8, §9

C#CCOc1cc(-c2c(Cl)c(C(F)(F)F)n(C)c2Cl)c(F)cc1Cl [Compound 14, 3-[4-chloro-2-fluoro-5-(2-propinyloxy)phenyl]-2,4-dichloro-1-methyl-5-trifluoromethyl pyrrole]
5: Herbicidal activity in post-emerqence, CS (Convolvulus sepium (CS)) | Herbicidal activity in post-emerqence, SN (Solanum nigrum (SN)) | Herbicidal activity in post-emerqence, CA (Chenopodium album (CA)) | Herbicidal activity in post-emerqence, AR [1] | Herbicidal activity in post-emerqence, AT (Abutilon theofrasti (AT)) | Herbicidal activity in post-emerqence, PO (Portulaca oleracea (PO)) | Herbicidal activity in post-emerqence, IP (Ipomea purpurea (IP))

CCOC(=O)COc1cc(-c2c(Br)c(C(F)(F)F)n(C)c2Cl)c(F)cc1Cl [Compound 18, ethyl-5-(4-bromo-2-chloro-1-methyl-5-trifluoromethylpyrrol-3-yl)-2-chloro-4-fluorophenoxyacetate]
5: Herbicidal activity in post-emerqence, CS (Convolvulus sepium (CS)) | Herbicidal activity in post-emerqence, SN (Solanum nigrum (SN)) | Herbicidal activity in post-emerqence, CA (Chenopodium album (CA)) | Herbicidal activity in post-emerqence, AR [1] | Herbicidal activity in post-emerqence, AT (Abutilon theofrasti (AT)) | Herbicidal activity in post-emerqence, PO (Portulaca oleracea (PO)) | Herbicidal activity in post-emerqence, IP (Ipomea purpurea (IP))

C#CCOc1cc(-c2c(Br)c(C(F)(F)F)n(C)c2Cl)c(F)cc1Cl [Compound 17, 4-bromo-3-[4-chloro-2-fluoro-5-(2-propinyloxy)phenyl]-2-chloro-1-methyl-5-trifluoromethyl pyrrole]
5: Herbicidal activity in post-emerqence, CS (Convolvulus sepium (CS)) | Herbicidal activity in post-emerqence, SN (Solanum nigrum (SN)) | Herbicidal activity in post-emerqence, CA (Chenopodium album (CA)) | Herbicidal activity in post-emerqence, AR [1] | Herbicidal activity in post-emerqence, AT (Abutilon theofrasti (AT)) | Herbicidal activity in post-emerqence, PO (Portulaca oleracea (PO)) | Herbicidal activity in post-emerqence, IP (Ipomea purpurea (IP))

C#CCOc1cc(-c2c(Br)c(C(F)(F)F)n(C)c2Br)c(F)cc1Cl [Compound 5, 3-[4-chloro-2-fluoro-5-(2-propinyloxy)phenyl]-2,4-dibromo-1-methyl-5-trifluoromethylpyrrole]
5: Herbicidal activity in post-emerqence, CS (Convolvulus sepium (CS)) | Herbicidal activity in post-emerqence, SN (Solanum nigrum (SN)) | Herbicidal activity in post-emerqence, CA (Chenopodium album (CA)) | Herbicidal activity in post-emerqence, AR [1] | Herbicidal activity in post-emerqence, AT (Abutilon theofrasti (AT)) | Herbicidal activity in post-emerqence, PO (Portulaca oleracea (PO)) | Herbicidal activity in post-emerqence, IP (Ipomea purpurea (IP))

CCOC(=O)COc1cc(-c2c(Cl)c(C(F)(F)F)n(C)c2Cl)c(F)cc1Cl [Compound 15, ethyl [2-chloro-5-(2,4-dichloro-1-methyl-5-trifluoro methylpyrrol-3-yl)-4-fluorophenoxy]acetate]
5: Herbicidal activity in post-emerqence, CS (Convolvulus sepium (CS)) | Herbicidal activity in post-emerqence, SN (Solanum nigrum (SN)) | Herbicidal activity in post-emerqence, CA (Chenopodium album (CA)) | Herbicidal activity in post-emerqence, AR [1] | Herbicidal activity in post-emerqence, AT (Abutilon theofrasti (AT)) | Herbicidal activity in post-emerqence, PO (Portulaca oleracea (PO)) | Herbicidal activity in post-emerqence, IP (Ipomea purpurea (IP))

CCOC(=O)COc1cc(-c2c(Br)c(C(F)(F)F)n(C)c2Br)c(F)cc1Cl [Compound 4, ethyl 2-chloro-5-(2,4-dibromo-1-methyl-5-trifluoromethylpyrrol-3-yl)-4-fluorophenoxy acetate]
5: Herbicidal activity in post-emerqence, CS (Convolvulus sepium (CS)) | Herbicidal activity in post-emerqence, SN (Solanum nigrum (SN)) | Herbicidal activity in post-emerqence, CA (Chenopodium album (CA)) | Herbicidal activity in post-emerqence, AR [1] | Herbicidal activity in post-emerqence, AT (Abutilon theofrasti (AT)) | Herbicidal activity in post-emerqence, PO (Portulaca oleracea (PO)) | Herbicidal activity in post-emerqence, IP (Ipomea purpurea (IP))
